# From ChEMBL document CHEMBL1275364, “Diaryldiamines with dual inhibition of the histamine H(3) receptor and the norepinephrine transporter and the efficacy of 4-(3-(methylamino)-1-phenylpropyl)-6-(2-(pyrrolidin-1-yl)ethoxy)naphthalen-1-ol in pain” (J Med Chem, 2010)
# Columns and labels:
# [1] = target: T1, Histamine H3 receptor (Homo sapiens, UniProt Q9Y5N1); assay: Antagonist activity at human recombinant histamine H3 receptor expressed in HEK cells assessed as inhibition of RAMH-induced [35S]GTPgammaS binding by liquid scintillation counting; format: functional, cell-based; settings: HEK293
# T1 sequence (Q9Y5N1 whole entry): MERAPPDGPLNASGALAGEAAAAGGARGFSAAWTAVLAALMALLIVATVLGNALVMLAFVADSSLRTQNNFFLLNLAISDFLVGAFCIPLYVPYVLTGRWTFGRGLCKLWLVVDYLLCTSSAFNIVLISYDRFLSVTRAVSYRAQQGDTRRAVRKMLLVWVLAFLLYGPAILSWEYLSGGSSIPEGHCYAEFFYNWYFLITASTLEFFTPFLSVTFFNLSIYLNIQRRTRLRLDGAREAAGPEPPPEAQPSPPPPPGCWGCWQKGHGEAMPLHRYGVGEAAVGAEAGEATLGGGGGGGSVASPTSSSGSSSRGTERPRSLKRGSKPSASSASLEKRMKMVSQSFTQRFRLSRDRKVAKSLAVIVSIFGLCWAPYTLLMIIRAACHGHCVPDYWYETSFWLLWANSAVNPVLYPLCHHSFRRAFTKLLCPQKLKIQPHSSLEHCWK
# [2] = target: Sodium-dependent serotonin transporter (Homo sapiens, UniProt P31645)
# Chain of Sodium-dependent serotonin transporter (P31645 whole entry): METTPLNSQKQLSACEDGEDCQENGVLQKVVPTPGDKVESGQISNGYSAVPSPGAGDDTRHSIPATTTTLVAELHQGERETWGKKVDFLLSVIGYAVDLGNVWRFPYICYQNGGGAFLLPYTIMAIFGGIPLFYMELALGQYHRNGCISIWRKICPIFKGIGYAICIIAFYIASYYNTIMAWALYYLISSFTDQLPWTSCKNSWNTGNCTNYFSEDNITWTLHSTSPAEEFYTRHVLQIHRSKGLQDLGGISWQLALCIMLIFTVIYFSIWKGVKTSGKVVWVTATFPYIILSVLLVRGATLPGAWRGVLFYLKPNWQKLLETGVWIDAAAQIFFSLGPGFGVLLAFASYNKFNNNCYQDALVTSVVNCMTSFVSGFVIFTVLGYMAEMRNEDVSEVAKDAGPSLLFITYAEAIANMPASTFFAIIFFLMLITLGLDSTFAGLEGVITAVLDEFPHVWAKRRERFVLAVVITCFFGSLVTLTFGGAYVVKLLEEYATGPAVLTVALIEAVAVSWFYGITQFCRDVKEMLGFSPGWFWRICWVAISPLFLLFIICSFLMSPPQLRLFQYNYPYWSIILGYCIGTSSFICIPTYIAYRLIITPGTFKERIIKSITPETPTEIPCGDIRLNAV
# [3] = target: Histamine H3 receptor (Rattus norvegicus, UniProt Q9QYN8)
# Chain of Histamine H3 receptor (Rattus norvegicus, UniProt Q9QYN8) (Q9QYN8 whole entry): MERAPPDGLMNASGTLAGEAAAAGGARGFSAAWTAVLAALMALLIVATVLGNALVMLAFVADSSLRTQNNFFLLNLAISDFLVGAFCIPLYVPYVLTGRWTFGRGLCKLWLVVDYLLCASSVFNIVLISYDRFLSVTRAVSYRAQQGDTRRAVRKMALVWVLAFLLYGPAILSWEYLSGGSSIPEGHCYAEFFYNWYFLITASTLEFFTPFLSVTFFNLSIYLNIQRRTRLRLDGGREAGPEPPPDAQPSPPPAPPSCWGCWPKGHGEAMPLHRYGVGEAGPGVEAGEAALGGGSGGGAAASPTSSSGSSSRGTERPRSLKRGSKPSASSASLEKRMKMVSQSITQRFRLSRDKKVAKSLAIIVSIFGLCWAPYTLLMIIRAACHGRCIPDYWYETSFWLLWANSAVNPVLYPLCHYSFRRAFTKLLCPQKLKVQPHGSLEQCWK
# Description: Displacement of [3H]N-R-methylhistamine from rat H3 receptor
# [4] = target: Transporter (Rattus norvegicus, UniProt Q63380); assay: biochemical
# Chain of Transporter (Q63380 whole entry): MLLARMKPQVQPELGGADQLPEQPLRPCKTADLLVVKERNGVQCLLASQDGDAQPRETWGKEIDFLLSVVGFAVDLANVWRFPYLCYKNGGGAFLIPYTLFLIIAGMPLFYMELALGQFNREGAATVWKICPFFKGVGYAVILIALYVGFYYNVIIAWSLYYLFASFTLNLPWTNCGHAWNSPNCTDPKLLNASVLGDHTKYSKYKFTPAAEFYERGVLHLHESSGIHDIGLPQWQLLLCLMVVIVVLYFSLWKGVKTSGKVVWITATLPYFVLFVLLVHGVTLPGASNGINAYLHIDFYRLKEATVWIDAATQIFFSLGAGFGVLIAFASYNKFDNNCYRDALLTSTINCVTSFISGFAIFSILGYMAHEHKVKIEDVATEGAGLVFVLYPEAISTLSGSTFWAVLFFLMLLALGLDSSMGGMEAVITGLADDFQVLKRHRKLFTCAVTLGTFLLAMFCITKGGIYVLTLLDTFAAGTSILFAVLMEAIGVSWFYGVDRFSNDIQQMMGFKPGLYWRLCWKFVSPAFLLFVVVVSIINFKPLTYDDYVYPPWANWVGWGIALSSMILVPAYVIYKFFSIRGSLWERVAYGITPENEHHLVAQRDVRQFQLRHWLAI
# Description: Displacement of [3H]nisoxetine from rat NET in rat cerebral cortex
# [5] = target: T1, Histamine H3 receptor; assay: biochemical
# Description: Displacement of [3H]N-R-methylhistamine from human H3 receptor isolated from C6 cells
# [6] = Cmax in Sprague-Dawley rat at 1 mg/kg, ip; format: ADME, organism-based; parameters: dose 1 mg/kg, route intraperitoneal; settings: in vivo
# [7] = Tmax in Sprague-Dawley rat at 1 mg/kg, ip; format: ADME, organism-based; parameters: dose 1 mg/kg, route intraperitoneal; settings: in vivo
# [8] = Bioavailability in Sprague-Dawley rat at 1 mg/kg, ip and iv; format: ADME, organism-based; settings: in vivo
# [9] = Volume of distribution in Sprague-Dawley rat at 1 mg/kg, iv; format: ADME, organism-based; parameters: dose 1 mg/kg, route intravenous; settings: in vivo
# [10] = Clearance in Sprague-Dawley rat at 1 mg/kg, iv; format: ADME, organism-based; parameters: dose 1 mg/kg, route intravenous; settings: in vivo
# [11] = Half life in Sprague-Dawley rat at 1 mg/kg, iv; format: ADME, organism-based; parameters: dose 1 mg/kg, route intravenous; settings: in vivo
# [12] = Plasma protein binding in Sprague-Dawley rat at 1 mg/kg, iv; format: ADME, organism-based; parameters: dose 1 mg/kg, route intravenous; settings: read-out: PPB (converted)
# [13] = Plasma protein binding in Sprague-Dawley rat assessed as unbound fraction at 1 mg/kg, iv; format: ADME, organism-based; parameters: dose 1 mg/kg, route intravenous
# [14] = test system: Rattus norvegicus; assay: Antiinflammatory activity in Sprague-Dawley rat osteoarthritis model assessed as efficacy at 3 mg/kg, ip after 20 days; format: functional; settings: route intraperitoneal
# [15] = test system: Rattus norvegicus; assay: Antiinflammatory activity in Sprague-Dawley rat osteoarthritis model assessed as efficacy at 10 mg/kg, ip after 20 days; format: functional; settings: route intraperitoneal
# [16] = test system: Rattus norvegicus; assay: Antiinflammatory activity in ip dosed Sprague-Dawley rat osteoarthritis model assessed as efficacy measured after 20 days; format: functional; settings: 480 h
# [17] = Plasma concentration in Sprague-Dawley rat osteoarthritis model at 1 mg/kg, ip after 45 mins; format: ADME, organism-based; parameters: dose 1 mg/kg, route intraperitoneal
# [18] = Plasma concentration in Sprague-Dawley rat osteoarthritis model at 3 mg/kg, ip after 45 mins; format: ADME, organism-based; parameters: dose 3 mg/kg, route intraperitoneal
# [19] = Plasma concentration in Sprague-Dawley rat osteoarthritis model at 10 mg/kg, ip after 45 mins; format: ADME, organism-based; parameters: dose 10 mg/kg, route intraperitoneal
# [20] = test system: Rattus norvegicus; assay: Ex vivo receptor occupancy of histamine H3 receptor in Sprague-Dawley rat osteoarthritis model at 1 mg/kg, ip; format: functional; settings: route intraperitoneal
# [21] = test system: Rattus norvegicus; assay: Ex vivo receptor occupancy of histamine H3 receptor in Sprague-Dawley rat osteoarthritis model at 3 mg/kg, ip; format: functional; settings: route intraperitoneal
# [22] = test system: Rattus norvegicus; assay: Ex vivo receptor occupancy of histamine H3 receptor in Sprague-Dawley rat osteoarthritis model at 10 mg/kg, ip; format: functional; settings: route intraperitoneal
# [23] = test system: Rattus norvegicus; assay: Ex vivo receptor occupancy of NET in Sprague-Dawley rat osteoarthritis model at 1 mg/kg, ip; format: functional; settings: route intraperitoneal
# [24] = test system: Rattus norvegicus; assay: Ex vivo receptor occupancy of NET in Sprague-Dawley rat osteoarthritis model at 3 mg/kg, ip; format: functional; settings: route intraperitoneal
# [25] = test system: Rattus norvegicus; assay: Ex vivo receptor occupancy of NET in Sprague-Dawley rat osteoarthritis model at 10 mg/kg, ip; format: functional; settings: route intraperitoneal
# [26] = test system: Rattus norvegicus; assay: Antiinflammatory activity in ip dosed Sprague-Dawley rat osteoarthritis model assessed as efficacy measured at 370 nM plasma concentration after 20 days; format: functional
compound,measurement,setting,value
CNCCCC(c1ccccc1)c1ccc(OCCN2CCCC2)cc1 (centres undefined),Kb,[1],2.1 nM
same,Ki,[2],> 70 nM
same,Ki,[3],2.9 nM
same,Ki,[4],14 nM
same,Ki,[5],0.89 nM
CNCCC(Oc1cccc2cc(OCCN3CCCC3)ccc12)c1ccccc1 (centres undefined),Kb,[1],67 nM
same,Ki,[3],48 nM
same,Ki,[4],230 nM
CNCCN(c1ccccc1)c1ccc(OCCN2CCCC2)cc1,Kb,[1],2.4 nM
same,Ki,[2],> 70 nM
same,Ki,[3],5.4 nM
same,Ki,[4],89 nM
same,Ki,[5],1.6 nM
CNCCC(c1ccccc1)c1ccc(O)c2ccc(OCCN3CCCC3)cc12 (centres undefined),Kb,[1],8.3 nM
same,Cmax,[6],0.21 µg/mL
same,Tmax,[7],0.25 h
same,bioavailability,[8],43%
same,Vd,[9],8.2 L/kg
same,clearance,[10],0.46 L/h/kg
same,half-life,[11],12 h
same,fraction unbound,[12],0.33
same,fraction unbound,[13],0.33
same,Activity,[14],70%
same,Activity,[15],93%
same,ED50,[16],1.2 mg/kg
same,concentration at 0.75 h,[17],0.129 µg/mL
same,concentration at 0.75 h,[18],0.382 µg/mL
same,concentration at 0.75 h,[19],1.24 µg/mL
same,Activity,[20],74%
same,Activity,[21],89%
same,Activity,[22],97%
same,Activity,[23],88%
same,Activity,[24],96%
same,Activity,[25],99%
same,Ki,[2],7 nM
same,ED50,[26],0.15 mg/L
same,Ki,[3],37 nM
same,Ki,[4],14 nM
same,Ki,[5],7.4 nM
CNCCC(c1ccccc1)c1cccc2ccccc12 (centres undefined),Ki,[2],2.4 nM
CNCCCN(c1ccccc1)c1ccc(OCCN2CCCC2)cc1,Kb,[1],0.79 nM
same,Ki,[2],> 70 nM
same,Ki,[3],0.72 nM
same,Ki,[4],110 nM
same,Ki,[5],0.28 nM
CNCCC(c1ccccc1)c1ccc(OCCN2CCCC2)cc1 (centres undefined),Ki,[2],> 70 nM
same,Ki,[3],5.2 nM
same,Ki,[4],4.3 nM
same,Ki,[5],1.4 nM
